Results reported in patent US20260207718A1, “METHODS FOR TREATING LATE ONSET POMPE DISEASE IN PEDIATRIC PATIENTS” (Amicus Therapeutics, Inc., priority 2022, published 2026).
Like-named read-outs stand apart in the source and are kept apart here.

How the values were obtained:
[1] = ATB200-04 trial: population PK exposure matching of adolescents to adults; assay type: in vivo, human; details: for AUC(0-t) / Cmax: human, plasma
Text: The ATB200-04 trial seeks to evaluate the safety and tolerability of cipaglucosidase alfa/miglustat co-administration.
Subjects have scheduled PK assessments at Day 1, Week 26, and Week 52 for plasma total GAA protein and miglustat.
Population PK parameters include clearance (CL) and volume of distribution (V), estimated from total GAA protein concentrations and miglustat concentrations in plasma.
Methods for Exposure Matching. Pediatric PK data from both clinical trials and expanded access programs were used for exposure matching to adult PK data. […] The previous base population PK models from cipaglucosidase alfa-atga and miglustat were rerun with the updated dataset. To account for longitudinal changes in body size for pediatric patients, the time-varying body weight was used to estimate the effects of body size on PK parameters in the population PK models. The effect of age at baseline on clearance was also evaluated in the PK models. Individual AUC0-24 and Cmax of cipaglucosidase alfa and miglustat were predicted from the PK empirical Bayes estimates (EBEs). The time-varying body weight and baseline age in pediatrics were used in the exposure prediction. PK exposures (AUC0-24 and Cmax) were predicted for each PK visit during the study; Day 1-baseline, Week 26, and Week 52. Additionally, there were unscheduled PK visits for some subjects.
Results for Adolescent Subjects. […] The dose may have been adjusted at a later visit for exposure matching. It should be noted however, that in the early stage of the study, all subjects were started at 20 mg/kg to evaluate safety.

[2] = test system: pediatric subjects with late-onset Pompe disease; assay: ATB200-04 trial: safety in pediatric subjects with LOPD; assay type: in vivo, human; details: ERT-experienced subject, Cohort 2

AUC(0-t) ([1]; oral, miglustat, predicted, Adults N=100, read-out: AUC0-24, Geo Mean): 20400 ng·h/mL
AUC(0-t) ([1]; oral, miglustat, predicted, Adults N=100, read-out: AUC0-24, Mean): 20700 ng·h/mL
AUC(0-t) ([1]; oral, miglustat, predicted, Adults N=100, read-out: AUC0-24, Median): 20700 ng·h/mL
AUC(0-t) ([1]; oral, miglustat, predicted, Adults N=100, read-out: AUC0-24, P5): 15200 ng·h/mL
AUC(0-t) ([1]; oral, miglustat, predicted, Adults N=100, read-out: AUC0-24, P95): 28300 ng·h/mL
Cmax ([1]; oral, miglustat, predicted, Adults N=100, read-out: Cmax, Geo Mean): 2370 ng/mL
Cmax ([1]; oral, miglustat, predicted, Adults N=100, read-out: Cmax, Mean): 2420 ng/mL
Cmax ([1]; oral, miglustat, predicted, Adults N=100, read-out: Cmax, Median): 2370 ng/mL
Cmax ([1]; oral, miglustat, predicted, Adults N=100, read-out: Cmax, P5): 1720 ng/mL
Cmax ([1]; oral, miglustat, predicted, Adults N=100, read-out: Cmax, P95): 3280 ng/mL
AUC(0-t) ([1]; po, 195 mg, adolescent Subject 5, 195 mg, Week 52, 43.7 kg, read-out: individual predicted AUC0-24): 21000 ng·h/mL
Cmax ([1]; po, 195 mg, adolescent Subject 5, 195 mg, Week 52, 43.7 kg, read-out: individual predicted Cmax): 2330 ng/mL
AUC(0-t) ([1]; po, 195 mg, adolescent Subject 6, 195 mg, Week 52, 36.5 kg, read-out: individual predicted AUC0-24): 13500 ng·h/mL
Cmax ([1]; po, 195 mg, adolescent Subject 6, 195 mg, Week 52, 36.5 kg, read-out: individual predicted Cmax): 1700 ng/mL
AUC(0-t) ([1]; po, 260 mg, adolescent Subject 1, 260 mg, Week 52, 77.9 kg, read-out: individual predicted AUC0-24): 20400 ng·h/mL
Cmax ([1]; po, 260 mg, adolescent Subject 1, 260 mg, Week 52, 77.9 kg, read-out: individual predicted Cmax): 2960 ng/mL
AUC(0-t) ([1]; po, 260 mg, adolescent Subject 2, 260 mg, Week 52, 83.8 kg, read-out: individual predicted AUC0-24): 17100 ng·h/mL
Cmax ([1]; po, 260 mg, adolescent Subject 2, 260 mg, Week 52, 83.8 kg, read-out: individual predicted Cmax): 1910 ng/mL
AUC(0-t) ([1]; po, 260 mg, adolescent Subject 3, 260 mg, Week 52, 64.6 kg, read-out: individual predicted AUC0-24): 20300 ng·h/mL
Cmax ([1]; po, 260 mg, adolescent Subject 3, 260 mg, Week 52, 64.6 kg, read-out: individual predicted Cmax): 2170 ng/mL
AUC(0-t) ([1]; po, 260 mg, adolescent Subject 4, 260 mg, Week 64, 53.3 kg, read-out: individual predicted AUC0-24): 22300 ng·h/mL
Cmax ([1]; po, 260 mg, adolescent Subject 4, 260 mg, Week 64, 53.3 kg, read-out: individual predicted Cmax): 2590 ng/mL
AUC(0-t) ([1]; po, 260 mg, adolescent Subject 7, 260 mg, Week 52, 60.3 kg, read-out: individual predicted AUC0-24): 15000 ng·h/mL
Cmax ([1]; po, 260 mg, adolescent Subject 7, 260 mg, Week 52, 60.3 kg, read-out: individual predicted Cmax): 1850 ng/mL
AUC(0-t) ([1]; po, 260 mg, adolescent Subject 8, 260 mg, Week 72, 38.5 kg, read-out: individual predicted AUC0-24): 19600 ng·h/mL
Cmax ([1]; po, 260 mg, adolescent Subject 8, 260 mg, Week 72, 38.5 kg, read-out: individual predicted Cmax): 1800 ng/mL
AUC(0-t) ([1]; po, miglustat, predicted, Adolescents N=8, read-out: AUC0-24, Geo Mean): 18400 ng·h/mL
AUC(0-t) ([1]; po, miglustat, predicted, Adolescents N=8, read-out: AUC0-24, Mean): 18700 ng·h/mL
AUC(0-t) ([1]; po, miglustat, predicted, Adolescents N=8, read-out: AUC0-24, Median): 20000 ng·h/mL
AUC(0-t) ([1]; po, miglustat, predicted, Adolescents N=8, read-out: AUC0-24, P5): 14100 ng·h/mL
AUC(0-t) ([1]; po, miglustat, predicted, Adolescents N=8, read-out: AUC0-24, P95): 21800 ng·h/mL
Cmax ([1]; po, miglustat, predicted, Adolescents N=8, read-out: Cmax, Geo Mean): 2130 ng/mL
Cmax ([1]; po, miglustat, predicted, Adolescents N=8, read-out: Cmax, Mean): 2160 ng/mL
Cmax ([1]; po, miglustat, predicted, Adolescents N=8, read-out: Cmax, Median): 2040 ng/mL
Cmax ([1]; po, miglustat, predicted, Adolescents N=8, read-out: Cmax, P5): 1740 ng/mL
Cmax ([1]; po, miglustat, predicted, Adolescents N=8, read-out: Cmax, P95): 2830 ng/mL
Cmax, geometric LSM Ratio adolescents to adults ([1]; miglustat, 90% CI (79.51, 101.54)): 89.85
AUC0-24, geometric LSM Ratio adolescents to adults ([1]; miglustat, 90% CI (80.58, 101.21)): 90.31
SMILES: CCCCN1C[C@H](O)[C@@H](O)[C@H](O)[C@H]1CO [miglustat, (2R,3R,4R,5S)-1-butyl-2-(hydroxymethyl) piperidine-3,4,5-triol]
predicted AUC0-24 and Cmax for adolescents relative to adult 5th and 95th percentile range ([1]; adults N=100, adolescents N=8): for most adolescents are within the adult 5th and 95th percentile range
investigator-assessed relatedness of anaphylaxis event (both episodes) [2]: unrelated
